Where “and” joins values, the source holds several entries; their conditions need not be identical. Equal values may be shown once. Read-outs that look alike come from different tables or passages of the source.
How the values were obtained:
[1] = Feed palatability, feed and water consumption and bird productivity study (Example 2); type: in vivo, broiler chickens
Source text: A follow-up study to determine the feed palatability, feed and water consumption and bird productivity following incorporation of a single formulation of IRP001 hemisulfate salt (unmasked) when offered to broiler chickens in-feed or in-water. The study explores the optimal treatment regime in terms of treatment start date.
Phase 1: On receipt, two hundred and seventy (270) day-old commercial broiler chickens were allocated sequentially as they are received into sixteen (16) individual floor pens, each of 16 or 17 birds, on Day 0.
Phase 2: On receipt, the ninety (90) day-old commercial broiler chickens were allocated sequentially as they are received into four (4) individual floor pens, each of 22 or 23 birds, on Day 22.
Feed intake, water intake, weight gain and mortality were used as outcome parameters.
Individual daily feed intake and individual daily water intake data by pen and then by treatment group were calculated for Phases 1 and 2 (and for the entire trial for the birds in Group/Pen 2, 15 and 16 that continue through both Phases) using figures for total feed and water provided each day to each pen divided by the number of birds in each pen. Where errors in weighing, feeding/watering or recording (or other unexplained losses of feed and water) had occurred means were adjusted by using the mean value for the same pen on the 1-2 days either side of the apparent error. Similarly, group mean bodyweights were calculated for Phase 1 using total weight/total no. birds for Day 0 and individual weights from Days 7, 14, 21, 28, 35 and 42. Total (individual) feed consumed was calculated per treatment and feed conversion ratios per treatment calculated using the expression: total (individual) feed/total (individual) weight gain.
Individual daily feed intake and individual daily water intake were statistically compared by treatment within each phase and between Pens 2 and 15/16 over both phases using a linear model:—
and Tibco SPOTFIRE S+ 8.2 (2010). ‘Day’ was included in the model to allow for changes over time, ‘Pen’ as each treatment consisted of 2 pens while an interaction term ‘Treatment:Day’ was included to allow for treatment×time effects. Model suitability was confirmed by inspection of residual plots; in all instances the statistical model was appropriate.

[2] = tested on: Clostridium Perfringens (type A strain EHE-NE36) after Eimeria oocyst challenge; details: for Median Duodenal Lesion Score (0 absent to 4 severe) / Median Ilial Lesion Score (0 absent to 4 severe) / Median Jejunal Lesion Score (0 absent to 4 severe): 16 days
[3] = tested on: Eimeria species (mainly E. acervulina); details: in vivo
[4] = in vivo
[5] = Phase 1, IVP 1 g/L in-water Day 0-21, pens 3, 4
[6] = Phase 1, IVP 1 g/L in-water Day 1-21, pens 5, 6
[7] = Phase 1, IVP 1 g/L in-water Day 2-21, pens 7, 8
[8] = Phase 1, IVP 1 g/L in-water Day 3-21, pens 9, 10
[9] = Phase 1, IVP 1 g/L in-water Day 4-21, pens 11, 12
[10] = Phase 1, IVP 1 g/L in-water Day 5-21, pens 13, 14
[11] = Phase 1, IVP 1 g/L in-water Day 6-21 (42), pens 15, 16
[12] = Phase 2 (day-old chicks received Day 22), pens 19, 20, Day 25-42FEED (IVP in-feed)
[13] = Phase 2 summary, pens 15, 16, D6-21(42), IVP 1 g/L in-water, birds kept to day 42
[14] = NE challenge, IVP 0.1 g/L in-water, groups 7, 8
[15] = NE challenge, IVP 0.20 g/kg in-feed, group 11
[16] = NE challenge, IVP 1.0 g/L in-water, groups 9, 10
[17] = NE challenge, IVP 2.0 g/kg in-feed, group 12
[18] = Necrotic Enteritis, IVP feed 0.2 g/kg, group 11, isolator 9, 11 birds
[19] = Necrotic Enteritis, IVP feed 2 g/kg, group 12, isolator 3, 15 birds
[20] = Necrotic Enteritis, IVP water 0.1 g/L, 'Mean' line of groups 7 and 8, 28 birds
[21] = Necrotic Enteritis, IVP water 0.1 g/L, group 7, isolator 6, 13 birds
[22] = Necrotic Enteritis, IVP water 0.1 g/L, group 8, isolator 11, 15 birds
[23] = Necrotic Enteritis, IVP water 1.0 g/L, 'Mean' line of groups 9 and 10, 25 birds
[24] = Necrotic Enteritis, IVP water 1.0 g/L, group 9, isolator 2, 9 birds
[25] = Necrotic Enteritis, IVP water 1.0 g/L, group 10, isolator 8, 16 birds
[26] = Nil Challenge, IVP water 1.0 g/L, 'Mean' line of groups 3 and 4, 25 birds
[27] = Nil Challenge, IVP water 1.0 g/L, group 3, isolator 10, 10 birds
[28] = Nil Challenge, IVP water 1.0 g/L, group 4, isolator 4, 15 birds
[29] = Nil challenge, IVP 1.0 g/L in-water, groups 3, 4

COc1ccc2cc3[n+](cc2c1OC)CCc1cc2c(cc1-3)OCO2 [IRP001 chloride, berberine chloride]
FCR [1, 5]: 1.49 | Gain [1, 5]: 0.610 kg | Group mean bodyweight Day 0 [1, 5]: 43.2 | Group mean bodyweight Day 7 [1, 5]: 118.1 | Group mean bodyweight Day 14 [1, 5]: 291.9 | Group mean bodyweight Day 22 [1, 5]: 653.6 | Total Feed [1, 5]: 0.908 kg | FCR [1, 6]: 1.50 | Gain [1, 6]: 0.678 kg | Group mean bodyweight Day 0 [1, 6]: 42.4 | Group mean bodyweight Day 7 [1, 6]: 125.8 | Group mean bodyweight Day 14 [1, 6]: 309.0 | Group mean bodyweight Day 22 [1, 6]: 720.7 | Total Feed [1, 6]: 1.019 kg | FCR [1, 7]: 1.45 | Gain [1, 7]: 0.675 kg | Group mean bodyweight Day 0 [1, 7]: 44.6 | Group mean bodyweight Day 7 [1, 7]: 132.0 | Group mean bodyweight Day 14 [1, 7]: 315.4 | Group mean bodyweight Day 22 [1, 7]: 719.4 | Total Feed [1, 7]: 0.977 kg | FCR [1, 8]: 1.44 | Gain [1, 8]: 0.653 kg | Group mean bodyweight Day 0 [1, 8]: 42.4 | Group mean bodyweight Day 7 [1, 8]: 118.6 | Group mean bodyweight Day 14 [1, 8]: 295.1 | Group mean bodyweight Day 22 [1, 8]: 695.7 | Total Feed [1, 8]: 0.939 kg | FCR [1, 9]: 1.46 | Gain [1, 9]: 0.716 kg | Group mean bodyweight Day 0 [1, 9]: 41.8 | Group mean bodyweight Day 7 [1, 9]: 138.8 | Group mean bodyweight Day 14 [1, 9]: 320.3 | Group mean bodyweight Day 22 [1, 9]: 758.2 | Total Feed [1, 9]: 1.046 kg | FCR [1, 10]: 1.48 | Gain [1, 10]: 0.680 kg | Group mean bodyweight Day 0 [1, 10]: 44.3 | Group mean bodyweight Day 7 [1, 10]: 135.3 | Group mean bodyweight Day 14 [1, 10]: 316.8 | Group mean bodyweight Day 22 [1, 10]: 724.7 | Total Feed [1, 10]: 1.010 kg | FCR [1, 11]: 1.40 | Gain [1, 11]: 0.723 kg | Group mean bodyweight Day 0 [1, 11]: 43.8 | Group mean bodyweight Day 7 [1, 11]: 139.1 | Group mean bodyweight Day 14 [1, 11]: 325.2 | Group mean bodyweight Day 22 [1, 11]: 767.2 | Total Feed [1, 11]: 1.016 kg | Bodyweight Day 28 [1, 12]: 112.4 g | Bodyweight Day 35 [1, 12]: 273.6 g | Bodyweight Day 42 [1, 12]: 614.9 g | FCR [1, 12]: 1.56 | Feed [1, 12]: 0.783 kg | Gain [1, 12]: 0.502 kg | Bodyweight Day 28 [1, 13]: 1.16 kg | Bodyweight Day 35 [1, 13]: 1.66 kg | Bodyweight Day 42 [1, 13]: 2.39 kg | FCR [1, 13]: 1.64 | Feed [1, 13]: 3.841 kg | Gain [1, 13]: 2.346 kg | Median Duodenal Lesion Score (0 absent to 4 severe) [2, 14]: 4 | Median Ilial Lesion Score (0 absent to 4 severe) [2, 14]: 4 | Median Jejunal Lesion Score (0 absent to 4 severe) [2, 14]: 4 | Median Duodenal Lesion Score (0 absent to 4 severe) [2, 15]: 4 | Median Ilial Lesion Score (0 absent to 4 severe) [2, 15]: 4 | Median Jejunal Lesion Score (0 absent to 4 severe) [2, 15]: 4 | Median Duodenal Lesion Score (0 absent to 4 severe) [2, 16]: 1 | Median Ilial Lesion Score (0 absent to 4 severe) [2, 16]: 1 | Median Jejunal Lesion Score (0 absent to 4 severe) [2, 16]: 1 | Median Duodenal Lesion Score (0 absent to 4 severe) [2, 17]: 1 | Median Ilial Lesion Score (0 absent to 4 severe) [2, 17]: 1 | Median Jejunal Lesion Score (0 absent to 4 severe) [2, 17]: 1 | Mortalities prior to autopsy [2, 18]: 9 | Mortality % [2, 18]: 82% | Mortalities prior to autopsy [2, 19]: 2 | Mortality % [2, 19]: 13% | Mortalities prior to autopsy [2, 20]: 22 | Mortality % [2, 20]: 79% | Mortalities prior to autopsy [2, 21]: 12 | Mortality % [2, 21]: 92% | Mortalities prior to autopsy [2, 22]: 10 | Mortality % [2, 22]: 67% | Mortalities prior to autopsy [2, 23]: 0 | Mortality % [2, 23]: 0% | Mortalities prior to autopsy [2, 24]: 0 | Mortality % [2, 24]: 0% | Mortalities prior to autopsy [2, 25]: 0 | Mortality % [2, 25]: 0% | Mortalities prior to autopsy [2, 26]: 0 | Mortality % [2, 26]: 0% | Mortalities prior to autopsy [2, 27]: 0 | Mortality % [2, 27]: 0% | Mortalities prior to autopsy [2, 28]: 0 | Mortality % [2, 28]: 0% | Median Duodenal Lesion Score (0 absent to 4 severe) [2, 29]: 0 | Median Ilial Lesion Score (0 absent to 4 severe) [2, 29]: 0 | Median Jejunal Lesion Score (0 absent to 4 severe) [2, 29]: 0 | FCR 0-14 corrected for mortality [3]: 1.120 and 1.125 and 1.103 | FCR 0-21 corrected for mortality [3]: 1.285 and 1.256 and 1.250 | FCR 0-28 corrected for mortality [3]: 1.470 and 1.467 and 1.486 | Feed per bird over days 0-14 [3]: 485^B g/bird and 513^A g/bird and 512^A g/bird | Feed per bird over days 0-21 [3]: 1186^B g/bird and 1227^AB g/bird and 1240^AB g/bird | Feed per bird over days 0-28 [3]: 1957 g/bird and 2037 g/bird and 2049 g/bird | Feed per bird over days 0-42 [3]: 4121 g/bird and 4247 g/bird and 4305 g/bird | Mean Weight Gain over days 0-7 [3]: 113 gm and 121 gm and 119 gm | Mean Weight Gain over days 8-14 [3]: 320^C gm and 334^A gm and 343^A gm | Mean Weight Gain over days 15-21 [3]: 491^B gm and 517^A gm and 528^A gm | Mean Weight Gain over days 22-28 [3]: 593 gm and 618 gm and 600 gm | Mean Weight Gain over days 29-42 [3]: 1324 gm and 1341 gm and 1436 gm | Mean live weight at 0 days [3]: 41 gm | Mean live weight at 7 days [3]: 154 gm and 163 gm and 160 gm | Mean live weight at 14 days [3]: 432^B gm and 456^A gm and 461^A gm | Mean live weight at 21 days [3]: 973^C gm and 972^AB gm and 989^A gm | Mean live weight at 28 days [3]: 1517^B gm and 1590^A gm | Mean live weight at 42 days [3]: 2840^B gm and 2932^A gm and 3026^A gm | appearance of bird health [3]: always appeared healthy | droppings [3]: moist yellow-ish droppings | early growth rate [3]: significantly lower than all other groups | growth rate [3]: statistically similar to the control group | lesion scores in duodenum, jejunum and total gut [3]: highest lesion scores | reduction of coccidial lesions [3]: not by the lower dose rates | total intestinal health scores (Tierlynck et al.) [3]: approached significance | translucency score upper intestine and undigested feed particles in rectum [3]: reduced translucency score in the upper intestine and the presence of undigested feed particles in the rectum | Cumulative Pathology and Enteritis scores [4]: equal or lower than the control

— patent US20240306670A1, “BERBERINE ALKALOIDS IN THE PREVENTION AND/OR TREATMENT OF INTESTINAL DISEASE” (priority 2017, published 2024)
